Measurements published in US4148896A, “Antidepressant combination” (E. I. Du Pont de Nemours and Company, priority 1978, dated 1979).
Where two headings read alike, the source gives them in different places.

Test system: tryptamine-induced stereotypies and hind limb paralysis
Experiment: Tryptamine potentiation test
Format: in vivo, mice
Details: for ED50: Mus musculus, po
Experimental: […] […] (60 Mg/kg of tryptamine alone causes this syndrome but it lasts for less than a minute, usually only a few seconds.) The data were analyzed quantally and ED50's calculated.

**Q.** What does the source list for `CCc1c(C)[nH]c2c1C(=O)C(CN1CCOCC1)CC2` (stereo not shown) [Molindone, 3-ethyl-6,7-dihydro-2-methyl-5-(morpholinomethyl)indol-4-(5H)-one]?
**A.** HEAD TWITCH (mice responding) (2.5 mg/kg p.o., 4 Hrs., N=10): 0; HIND LIMB PARALYSIS (mice responding) (2.5 mg/kg p.o., 4 Hrs., N=10): 0; ED50, HIND LIMB PARALYSIS (4 Hrs.): 8.6 mg/kg p.o.; HEAD TWITCH (mice responding) (5. mg/kg p.o., 4 Hrs., N=10): 0; HIND LIMB PARALYSIS (mice responding) (5. mg/kg p.o., 4 Hrs., N=10): 1; ED50, HEAD TWITCH (6 Hrs.): 15 mg/kg p.o.; HEAD TWITCH (mice responding) (10. mg/kg p.o., 1 Hr., N=10): 1; HIND LIMB PARALYSIS (mice responding) (10. mg/kg p.o., 1 Hr., N=10): 3; HEAD TWITCH (mice responding) (10. mg/kg p.o., 2 Hrs., N=10): 2; HIND LIMB PARALYSIS (mice responding) (10. mg/kg p.o., 2 Hrs., N=10): 8; HEAD TWITCH (mice responding) (10. mg/kg p.o., 4 Hrs., N=20): 1; HIND LIMB PARALYSIS (mice responding) (10. mg/kg p.o., 4 Hrs., N=20): 13; HEAD TWITCH (mice responding) (10. mg/kg p.o., 6 Hrs., N=10): 0; HIND LIMB PARALYSIS (mice responding) (10. mg/kg p.o., 6 Hrs., N=10): 7; HEAD TWITCH (mice responding) (10. mg/kg p.o., 24 Hrs., N=10): 0; HIND LIMB PARALYSIS (mice responding) (10. mg/kg p.o., 24 Hrs., N=10): 0; HEAD TWITCH (mice responding) (20. mg/kg p.o., 1 Hr., N=10): 3; HIND LIMB PARALYSIS (mice responding) (20. mg/kg p.o., 1 Hr., N=10): 9; HEAD TWITCH (mice responding) (20. mg/kg p.o., 2 Hrs., N=10): 3; HIND LIMB PARALYSIS (mice responding) (20. mg/kg p.o., 2 Hrs., N=10): 10; HEAD TWITCH (mice responding) (20. mg/kg p.o., 4 Hrs., N=20): 17; HIND LIMB PARALYSIS (mice responding) (20. mg/kg p.o., 4 Hrs., N=20): 20; HEAD TWITCH (mice responding) (20. mg/kg p.o., 6 Hrs., N=10): 9; HIND LIMB PARALYSIS (mice responding) (20. mg/kg p.o., 6 Hrs., N=10): 10; HEAD TWITCH (mice responding) (20. mg/kg p.o., 24 Hrs., N=10): 0; HIND LIMB PARALYSIS (mice responding) (20. mg/kg p.o., 24 Hrs., N=10): 0; HEAD TWITCH (mice responding) (40. mg/kg p.o., 1 Hr., N=10): 5; HIND LIMB PARALYSIS (mice responding) (40. mg/kg p.o., 1 Hr., N=10): 10; HEAD TWITCH (mice responding) (40. mg/kg p.o., 2 Hrs., N=10): 5; HIND LIMB PARALYSIS (mice responding) (40. mg/kg p.o., 2 Hrs., N=10): 10; HEAD TWITCH (mice responding) (40. mg/kg p.o., 4 Hrs., N=20): 19; HIND LIMB PARALYSIS (mice responding) (40. mg/kg p.o., 4 Hrs., N=20): 20; HEAD TWITCH (mice responding) (40. mg/kg p.o., 6 Hrs., N=10): 9; HIND LIMB PARALYSIS (mice responding) (40. mg/kg p.o., 6 Hrs., N=10): 10; HEAD TWITCH (mice responding) (40. mg/kg p.o., 24 Hrs., N=10): 0; HIND LIMB PARALYSIS (mice responding) (40. mg/kg p.o., 24 Hrs., N=10): 0; HEAD TWITCH (mice responding) (80. mg/kg p.o., 1 Hr., N=10): 0; HIND LIMB PARALYSIS (mice responding) (80. mg/kg p.o., 1 Hr., N=10): 4; HEAD TWITCH (mice responding) (80. mg/kg p.o., 2 Hrs., N=10): 1; HIND LIMB PARALYSIS (mice responding) (80. mg/kg p.o., 2 Hrs., N=10): 4; HEAD TWITCH (mice responding) (80. mg/kg p.o., 4 Hrs., N=10): 3; HIND LIMB PARALYSIS (mice responding) (80. mg/kg p.o., 4 Hrs., N=10): 6; HEAD TWITCH (mice responding) (80. mg/kg p.o., 6 Hrs., N=10): 6; HIND LIMB PARALYSIS (mice responding) (80. mg/kg p.o., 6 Hrs., N=10): 10; HEAD TWITCH (mice responding) (80. mg/kg p.o., 24 Hrs., N=10): 0; HIND LIMB PARALYSIS (mice responding) (80. mg/kg p.o., 24 Hrs., N=10): 0; HEAD TWITCH (mice responding) (160. mg/kg p.o., 1 Hr., N=10): 0; HIND LIMB PARALYSIS (mice responding) (160. mg/kg p.o., 1 Hr., N=10): 1; HEAD TWITCH (mice responding) (160. mg/kg p.o., 2 Hrs., N=10): 0; HIND LIMB PARALYSIS (mice responding) (160. mg/kg p.o., 2 Hrs., N=10): 4; HEAD TWITCH (mice responding) (160. mg/kg p.o., 4 Hrs., N=10): 0; HIND LIMB PARALYSIS (mice responding) (160. mg/kg p.o., 4 Hrs., N=10): 2; HEAD TWITCH (mice responding) (160. mg/kg p.o., 6 Hrs., N=10): 0; HIND LIMB PARALYSIS (mice responding) (160. mg/kg p.o., 6 Hrs., N=10): 4; HEAD TWITCH (mice responding) (160. mg/kg p.o., 24 Hrs., N=10): 2; HIND LIMB PARALYSIS (mice responding) (160. mg/kg p.o., 24 Hrs., N=10): 2; ED50 (1 Hr., read-out: ED50, HEAD TWITCH): 40 mg/kg; ED50 (1 Hr., read-out: ED50, HIND LIMB PARALYSIS): 13 mg/kg; ED50 (2 Hrs., read-out: ED50, HEAD TWITCH): 40 mg/kg; ED50 (2 Hrs., read-out: ED50, HIND LIMB PARALYSIS): < 10 mg/kg; ED50 (4 Hrs., read-out: ED50, HEAD TWITCH): 16.7 mg/kg; ED50 (4 Hrs., read-out: ED50, HIND LIMB PARALYSIS): 8.6 mg/kg; ED50 (6 Hrs., read-out: ED50, HEAD TWITCH): 15 mg/kg; ED50 (6 Hrs., read-out: ED50, HIND LIMB PARALYSIS): < 10 mg/kg; ED50 (24 Hrs., read-out: ED50, HEAD TWITCH): > 160 mg/kg; ED50 (24 Hrs., read-out: ED50, HIND LIMB PARALYSIS): > 160 mg/kg; peak time, head twitch (oral, tryptamine potentiation): 6 h
